Measured values as given in patent US20090042238A1, “Method of evaluating cell function, system for evaluating cell function, fluorescent microscope system, phototherapy method and phototherapy system” (NIKON CORPORATION, priority 2006, published 2009).

System: mitochondria in living cells
Assay: evaluation of cell function (phototoxic property) with confocal fluorescence microscope system
Format: cell-based
Description: The following describes an example of the evaluation of cell function according to the present invention, performed with the confocal fluorescence microscope system of the First Embodiment.
RH123, used as a fluorescent dye, was applied to the mitochondria in living cells to prepare a specimen. The specimen was two-dimensionally scanned by irradiating an argon laser (488 nm) emitted in a predetermined intensity from the excitation light source 11, so as to obtain a fluorescence image of one frame.
FIG. 8(A) is the actual first fluorescence image obtained. Predetermined positions of the mitochondria (stained area) and the cellular cytoplasm (reference point) were specified by rectangular shaped frames, and a mean value of brightness values of the pixels in each of these specific areas was determined. These mean values were used as the brightness value of the mitochondria, and the brightness value of the cellular cytoplasm, respectively.
This procedure of obtaining the fluorescence image was repeated under the same conditions, and the brightness values of the mitochondria and the cellular cytoplasm were measured. FIG. 8(B) is the actual 50th fluorescence image, and FIG. 8(C) is the actual 150th fluorescence image obtained. It can be seen from FIG. 8 that the fluorescence image indeed undergoes changes as described in the First Embodiment with reference to FIG. 2.

## Rhodamin 123 [RH123]
Argon laser (488 nm) of a predetermined intensity, repeated imaging, FIG. 9(A)
  frame number in which the brightness value of the cellular cytoplasm has the peak (functional depression of the mitochondria complete): 50
Laser beam having a weaker intensity than in FIG. 9(A), otherwise same conditions, FIG. 9(B)
  frame number in which the brightness value of the cellular cytoplasm has the peak: 70
